The source of these data is patent US7074789B2, “Kinase inhibitors” (Amgen Inc., priority 1999, dated 2006).

What all share (assay type): biochemical
One assay concerns the target T1, Tek (Homo sapiens, UniProt Q02763).
T1 construct: Kinases are expressed as either kinase domains or full length constructs; made in house
Put plainly: Kinase inhibition assay (33P transfer), Tek. The note with it: read-out: Tek-1. From the text:
The inhibitor compounds described herein are screened in the following manner. Kinases suitable for use in the following protocol to determine kinase activity of the compounds described herein include, -but are not limited to: Lck, Lyn, Src, Fyn, Syk, Zap-70, Itk, Tec, Btk, EGFR, ErbB2, Kdr, Flt-1, Flt-3, Tek, c-Met, InsR, and AKT.
Kinases are expressed as either kinase domains or full length constructs fused to glutathione S-transferase (GST) or polyHistidine tagged fusion proteins in either E. colior Baculovirus-High Five expression systems. They are purified to near homogeneity by affinity chromatography essentially as previously described (Lehr et al., 1996; Gish et al., 1995). In some instances, kinases are co-expressed or mixed with purified or partially purified regulatory polypeptides prior to measurement of activity.
Kinase activity and inhibition are measured essentially by established protocols (Braunwalder et al., 1996). Briefly, The transfer of ^33PO4 from ATP to the synthetic substrates poly(Glu, Tyr) 4:1 or poly(Arg, Ser) 3:1 attached to the bioactive surface of microtiter plates serves as the basis to evaluate enzyme activity. After an incubation period, the amount of phosphate transferred is measured by first washing the plate with 0.5% phosphoric acid, adding liquid scintillant, and then counting in a liquid scintillation detector. The IC50 is determined by the concentration of compound that causes a 50% reduction in the amount of […] incorporated onto the substrate bound to the plate.

The target of a further assay is T2, AKT (Homo sapiens, UniProt Q9Y243).
T2 construct: Kinases are expressed as either kinase domains or full length constructs; made in house
Kind of assay: Kinase inhibition assay (33P transfer), AKT. The note with it: Table 2, kinase inhibition class; read-out: AKT3-1. The method in brief: (§1)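 Radiometric readout: 33P incorporated into surface-bound poly(Glu,Tyr) 4:1 or poly(Arg,Ser) 3:1 is counted by liquid scintillation after a 0.5% phosphoric acid wash. Enzymes were GST or polyHis fusions (kinase domain or full length) from E. coli or High Five insect cells.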

A further assay has as its target T3, Zap-70 (Homo sapiens, UniProt P43403).
T3 construct: Kinases are expressed as either kinase domains or full length constructs; made in house
T3 sequence (P43403 1-619): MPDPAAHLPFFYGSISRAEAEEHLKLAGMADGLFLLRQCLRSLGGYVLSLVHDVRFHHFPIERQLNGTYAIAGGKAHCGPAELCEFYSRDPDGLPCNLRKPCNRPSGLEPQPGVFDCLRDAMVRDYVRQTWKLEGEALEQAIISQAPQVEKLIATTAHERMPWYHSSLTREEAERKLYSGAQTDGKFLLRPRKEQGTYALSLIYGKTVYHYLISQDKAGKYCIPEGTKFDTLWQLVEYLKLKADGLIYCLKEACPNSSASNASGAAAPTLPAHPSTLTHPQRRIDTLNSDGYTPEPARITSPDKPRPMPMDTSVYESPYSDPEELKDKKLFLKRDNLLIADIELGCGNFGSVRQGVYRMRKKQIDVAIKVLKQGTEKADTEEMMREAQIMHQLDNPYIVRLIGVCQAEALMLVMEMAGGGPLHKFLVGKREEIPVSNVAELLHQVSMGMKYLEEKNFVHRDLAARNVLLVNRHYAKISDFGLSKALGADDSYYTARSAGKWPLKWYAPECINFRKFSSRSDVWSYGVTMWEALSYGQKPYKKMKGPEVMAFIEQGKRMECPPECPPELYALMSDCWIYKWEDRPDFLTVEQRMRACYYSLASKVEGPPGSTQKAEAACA
Put plainly: Kinase inhibition assay (33P transfer), Zap-70. The settings on record: Table 3; read-out: Zap-1. The method, boiled down:
as §1

The target of the next assay is T4, EGFR (Homo sapiens, UniProt P00533).
T4 construct: Kinases are expressed as either kinase domains or full length constructs; made in house
Kind of assay: Kinase inhibition assay (33P transfer), EGFR. The note with it: Table 2, kinase inhibition class; read-out: EGFR-1. The method, boiled down:
(§2)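 Read-out: scintillation counts of 33P moved from ATP onto synthetic peptide polymer coated on the well surface, after washing with 0.5% phosphoric acid. Enzymes were tagged (GST or polyHistidine) and came from bacterial or insect-cell expression. IC50 marks 50% loss of incorporated label.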

In the next assay the target is T5, Itk (Homo sapiens, UniProt Q08881).
T5 construct: Kinases are expressed as either kinase domains or full length constructs; made in house
T5 sequence (Q08881 1-620): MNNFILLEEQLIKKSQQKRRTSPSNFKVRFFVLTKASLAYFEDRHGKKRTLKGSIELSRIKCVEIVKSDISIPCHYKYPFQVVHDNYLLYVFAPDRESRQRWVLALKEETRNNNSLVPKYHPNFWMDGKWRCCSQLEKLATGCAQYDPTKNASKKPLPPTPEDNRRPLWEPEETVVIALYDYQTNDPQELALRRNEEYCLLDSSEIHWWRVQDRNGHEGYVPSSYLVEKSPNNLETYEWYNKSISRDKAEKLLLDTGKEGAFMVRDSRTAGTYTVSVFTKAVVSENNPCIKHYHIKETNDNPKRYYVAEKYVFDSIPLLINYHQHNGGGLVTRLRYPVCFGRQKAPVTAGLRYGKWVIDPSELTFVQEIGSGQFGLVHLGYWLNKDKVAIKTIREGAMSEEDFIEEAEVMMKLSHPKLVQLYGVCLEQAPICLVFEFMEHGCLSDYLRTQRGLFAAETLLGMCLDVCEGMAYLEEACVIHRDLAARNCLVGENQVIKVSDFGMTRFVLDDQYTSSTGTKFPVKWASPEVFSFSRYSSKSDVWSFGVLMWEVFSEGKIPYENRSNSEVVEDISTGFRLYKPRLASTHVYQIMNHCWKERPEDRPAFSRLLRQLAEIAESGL
Kind of assay: Kinase inhibition assay (33P transfer), Itk. The note with it: Table 3; read-out: Itk-1. The method, boiled down: as §2

Another assay addresses T6, Kdr (Homo sapiens, UniProt P35968).
T6 construct: Kinases are expressed as either kinase domains or full length constructs; made in house
Put plainly: Kinase inhibition assay (33P transfer), Kdr. The note with it: Table 3; read-out: KDR-1. The method in brief: as §1

A further assay concerns the target T7, c-Met (Homo sapiens, UniProt P08581).
T7 construct: Kinases are expressed as either kinase domains or full length constructs; made in house
Put plainly: Kinase inhibition assay (33P transfer), c-Met. The settings on record: Table 2, kinase inhibition class; read-out: Met-1. The method in brief:
as §2

The next assay addresses T8, Lck (Homo sapiens, UniProt P06239).
T8 construct: Kinases are expressed as either kinase domains or full length constructs; made in house
Kind of assay: Kinase inhibition assay (33P transfer), Lck. The settings on record: Table 3; read-out: Lck-1. The method, boiled down: as §1

T6 sequence (P35968 20-1356, species assumed): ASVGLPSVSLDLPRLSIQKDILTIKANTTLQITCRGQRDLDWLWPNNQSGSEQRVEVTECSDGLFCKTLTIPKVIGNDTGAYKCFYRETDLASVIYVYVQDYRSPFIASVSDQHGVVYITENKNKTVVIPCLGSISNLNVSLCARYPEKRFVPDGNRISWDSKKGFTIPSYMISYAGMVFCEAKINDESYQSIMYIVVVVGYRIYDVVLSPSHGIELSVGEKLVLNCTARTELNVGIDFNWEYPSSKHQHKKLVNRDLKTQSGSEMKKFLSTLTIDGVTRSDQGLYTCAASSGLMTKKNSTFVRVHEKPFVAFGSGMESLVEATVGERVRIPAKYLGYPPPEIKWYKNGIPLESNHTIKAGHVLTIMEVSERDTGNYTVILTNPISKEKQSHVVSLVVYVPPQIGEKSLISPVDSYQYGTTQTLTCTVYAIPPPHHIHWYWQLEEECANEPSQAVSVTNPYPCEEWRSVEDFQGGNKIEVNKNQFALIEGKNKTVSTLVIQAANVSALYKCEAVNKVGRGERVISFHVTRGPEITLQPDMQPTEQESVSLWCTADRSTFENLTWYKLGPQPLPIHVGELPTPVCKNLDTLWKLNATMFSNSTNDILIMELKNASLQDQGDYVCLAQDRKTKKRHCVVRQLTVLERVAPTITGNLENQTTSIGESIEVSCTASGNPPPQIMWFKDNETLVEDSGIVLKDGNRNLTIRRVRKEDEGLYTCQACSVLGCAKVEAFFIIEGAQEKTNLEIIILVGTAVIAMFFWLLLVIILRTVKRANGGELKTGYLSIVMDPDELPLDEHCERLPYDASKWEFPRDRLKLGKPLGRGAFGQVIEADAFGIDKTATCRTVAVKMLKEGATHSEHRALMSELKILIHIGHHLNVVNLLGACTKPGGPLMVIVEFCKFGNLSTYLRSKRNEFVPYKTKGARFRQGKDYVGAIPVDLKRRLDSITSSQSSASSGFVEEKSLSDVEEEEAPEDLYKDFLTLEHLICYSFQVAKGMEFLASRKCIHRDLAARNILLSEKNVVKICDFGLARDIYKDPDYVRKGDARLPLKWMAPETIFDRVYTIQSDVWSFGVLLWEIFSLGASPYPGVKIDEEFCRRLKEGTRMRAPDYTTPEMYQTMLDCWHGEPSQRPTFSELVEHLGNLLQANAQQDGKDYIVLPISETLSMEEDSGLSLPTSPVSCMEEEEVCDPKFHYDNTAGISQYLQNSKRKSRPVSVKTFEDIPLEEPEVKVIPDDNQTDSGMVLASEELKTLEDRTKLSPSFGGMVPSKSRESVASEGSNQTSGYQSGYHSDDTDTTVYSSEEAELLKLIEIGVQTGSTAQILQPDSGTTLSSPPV
T2 sequence (Q9Y243 whole entry, the tested form may be a part): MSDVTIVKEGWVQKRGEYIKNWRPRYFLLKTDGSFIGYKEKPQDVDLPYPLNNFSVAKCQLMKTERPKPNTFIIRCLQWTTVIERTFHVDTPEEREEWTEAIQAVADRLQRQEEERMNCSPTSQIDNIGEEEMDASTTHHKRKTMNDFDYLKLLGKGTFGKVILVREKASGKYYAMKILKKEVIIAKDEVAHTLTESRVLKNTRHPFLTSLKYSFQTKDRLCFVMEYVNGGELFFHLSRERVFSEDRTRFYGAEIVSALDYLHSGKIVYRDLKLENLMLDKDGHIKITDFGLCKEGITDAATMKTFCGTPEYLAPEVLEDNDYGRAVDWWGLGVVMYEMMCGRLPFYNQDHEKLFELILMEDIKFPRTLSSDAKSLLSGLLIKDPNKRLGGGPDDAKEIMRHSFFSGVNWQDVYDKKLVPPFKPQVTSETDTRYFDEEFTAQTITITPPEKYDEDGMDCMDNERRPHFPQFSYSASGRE
T7 sequence (P08581 25-1390): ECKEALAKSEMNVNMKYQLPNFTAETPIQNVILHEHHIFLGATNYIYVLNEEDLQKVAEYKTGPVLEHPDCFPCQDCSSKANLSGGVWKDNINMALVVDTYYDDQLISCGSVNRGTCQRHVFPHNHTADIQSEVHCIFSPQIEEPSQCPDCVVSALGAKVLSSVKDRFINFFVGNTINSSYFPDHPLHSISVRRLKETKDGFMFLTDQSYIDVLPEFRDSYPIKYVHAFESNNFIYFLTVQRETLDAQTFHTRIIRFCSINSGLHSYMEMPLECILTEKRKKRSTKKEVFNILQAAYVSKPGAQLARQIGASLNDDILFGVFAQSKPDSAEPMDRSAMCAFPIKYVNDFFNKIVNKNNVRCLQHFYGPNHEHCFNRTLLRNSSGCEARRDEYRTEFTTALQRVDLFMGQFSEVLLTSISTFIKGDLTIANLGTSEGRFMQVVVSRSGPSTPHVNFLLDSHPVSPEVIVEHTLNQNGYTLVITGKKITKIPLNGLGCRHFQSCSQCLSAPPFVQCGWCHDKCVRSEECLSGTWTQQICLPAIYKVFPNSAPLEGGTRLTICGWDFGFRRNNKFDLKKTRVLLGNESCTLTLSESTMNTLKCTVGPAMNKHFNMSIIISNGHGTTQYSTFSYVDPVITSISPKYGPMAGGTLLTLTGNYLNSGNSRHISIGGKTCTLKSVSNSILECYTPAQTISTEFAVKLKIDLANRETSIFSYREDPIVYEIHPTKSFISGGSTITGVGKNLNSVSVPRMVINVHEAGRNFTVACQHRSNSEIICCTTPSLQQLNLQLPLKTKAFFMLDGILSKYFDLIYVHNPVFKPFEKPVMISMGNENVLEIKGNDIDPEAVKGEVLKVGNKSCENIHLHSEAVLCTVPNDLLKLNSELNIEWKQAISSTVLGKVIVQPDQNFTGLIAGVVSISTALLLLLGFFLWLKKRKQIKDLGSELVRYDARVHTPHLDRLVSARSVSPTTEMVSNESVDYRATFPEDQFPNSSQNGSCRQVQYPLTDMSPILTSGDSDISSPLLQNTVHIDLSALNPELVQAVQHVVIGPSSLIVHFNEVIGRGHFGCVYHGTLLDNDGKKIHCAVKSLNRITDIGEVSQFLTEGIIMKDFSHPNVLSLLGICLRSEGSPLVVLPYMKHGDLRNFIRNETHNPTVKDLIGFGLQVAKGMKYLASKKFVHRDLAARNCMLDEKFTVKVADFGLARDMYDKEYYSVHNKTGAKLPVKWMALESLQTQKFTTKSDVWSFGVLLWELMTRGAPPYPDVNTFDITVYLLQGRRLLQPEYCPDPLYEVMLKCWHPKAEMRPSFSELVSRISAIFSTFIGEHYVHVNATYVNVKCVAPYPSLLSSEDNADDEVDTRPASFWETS
T4 sequence (P00533 25-1210, species assumed): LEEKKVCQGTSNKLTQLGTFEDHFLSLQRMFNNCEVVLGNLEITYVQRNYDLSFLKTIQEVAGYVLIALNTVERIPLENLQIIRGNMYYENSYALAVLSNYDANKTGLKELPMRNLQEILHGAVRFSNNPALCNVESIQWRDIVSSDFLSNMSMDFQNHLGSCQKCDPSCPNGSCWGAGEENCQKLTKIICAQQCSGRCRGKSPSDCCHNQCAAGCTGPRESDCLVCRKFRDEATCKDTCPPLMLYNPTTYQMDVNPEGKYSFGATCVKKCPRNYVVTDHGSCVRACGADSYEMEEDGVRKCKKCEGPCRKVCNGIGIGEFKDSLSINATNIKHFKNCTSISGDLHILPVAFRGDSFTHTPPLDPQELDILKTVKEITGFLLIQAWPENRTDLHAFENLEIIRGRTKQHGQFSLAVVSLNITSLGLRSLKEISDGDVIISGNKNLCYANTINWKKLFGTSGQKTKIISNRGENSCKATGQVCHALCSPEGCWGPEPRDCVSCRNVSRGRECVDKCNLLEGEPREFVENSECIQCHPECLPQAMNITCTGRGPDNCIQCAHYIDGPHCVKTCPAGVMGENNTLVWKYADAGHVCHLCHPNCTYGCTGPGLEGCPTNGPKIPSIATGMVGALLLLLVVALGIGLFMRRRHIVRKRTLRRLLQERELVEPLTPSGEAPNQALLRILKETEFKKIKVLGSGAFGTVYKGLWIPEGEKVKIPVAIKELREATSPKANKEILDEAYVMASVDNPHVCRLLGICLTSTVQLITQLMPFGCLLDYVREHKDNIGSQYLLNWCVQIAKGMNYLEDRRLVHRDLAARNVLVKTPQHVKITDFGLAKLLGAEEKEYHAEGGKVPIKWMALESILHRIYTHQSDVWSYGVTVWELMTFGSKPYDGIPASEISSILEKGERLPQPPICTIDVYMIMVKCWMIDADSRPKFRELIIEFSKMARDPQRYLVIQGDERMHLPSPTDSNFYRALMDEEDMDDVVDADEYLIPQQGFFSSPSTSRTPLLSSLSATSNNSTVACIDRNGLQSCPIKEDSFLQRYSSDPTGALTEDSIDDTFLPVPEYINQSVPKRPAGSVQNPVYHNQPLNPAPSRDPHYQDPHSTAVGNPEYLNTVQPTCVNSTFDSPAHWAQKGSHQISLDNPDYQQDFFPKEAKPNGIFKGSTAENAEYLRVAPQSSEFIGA
T8 sequence (P06239 whole entry, species assumed, the tested form may be a part): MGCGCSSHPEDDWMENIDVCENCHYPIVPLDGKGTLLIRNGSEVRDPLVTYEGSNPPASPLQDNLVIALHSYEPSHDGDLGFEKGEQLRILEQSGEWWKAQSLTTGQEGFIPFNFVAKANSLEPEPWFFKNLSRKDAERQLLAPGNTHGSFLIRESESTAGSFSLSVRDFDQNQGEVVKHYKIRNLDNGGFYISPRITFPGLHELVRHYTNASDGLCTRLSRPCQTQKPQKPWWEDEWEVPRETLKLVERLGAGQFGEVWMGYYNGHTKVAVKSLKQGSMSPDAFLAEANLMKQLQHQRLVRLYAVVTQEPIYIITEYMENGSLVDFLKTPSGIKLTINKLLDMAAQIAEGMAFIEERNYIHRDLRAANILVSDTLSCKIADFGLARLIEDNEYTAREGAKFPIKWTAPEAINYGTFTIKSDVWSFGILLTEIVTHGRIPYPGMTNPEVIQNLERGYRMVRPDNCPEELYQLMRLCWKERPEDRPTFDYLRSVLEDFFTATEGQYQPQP

For `COc1ccccc1Nc1nc2ccccc2n1-c1ncnc(Nc2cc(OC)c(OC)c(OC)c2)n1` [Compound 398], the IC50 on Tek is 7.01 to 9.01 µM; at AKT it was more than 9.01 µM; on Zap-70 it was more than 9.01 µM; on EGFR it was more than 9.01 µM; on Itk, more than 9.01 µM; on Kdr it was 4.8 to 7.01 µM. Also, the IC50 at c-Met and on Lck was more than 9.01 µM in each case.

Take `COc1cc(Nc2nc3ccccc3n2-c2ncnc(Nc3cc(OC)c(OC)c(OC)c3)n2)cc(OC)c1` [Compound 399]: the IC50 at Tek was more than 8.5 µM; at AKT it was 6.61 to 8.5 µM; on Zap-70, more than 8.5 µM; at EGFR, more than 8.5 µM; on Itk, more than 8.5 µM; on Kdr, 0.755 to 4.53 µM. The IC50 on c-Met is more than 8.5 µM; at Lck, 6.61 to 8.5 µM.

Take `COc1cc(Nc2ncnc(-n3c(Nc4cc(OC)c(OC)c(OC)c4)nc4ccccc43)n2)cc(OC)c1OC` [Compound 402]: the IC50 on Tek is more than 8.04 µM; at AKT it was more than 8.04 µM; at Zap-70, more than 8.04 µM; at EGFR it was more than 8.04 µM; at Itk, more than 8.04 µM; at Kdr, 0.715 to 4.29 µM. The IC50 on c-Met and on Lck was more than 8.04 µM throughout.

Consider `COc1cc(Nc2ncnc(-n3c(N(C)C)nc4ccccc43)n2)cc(OC)c1OC` [Compound 405], for which the IC50 was more than 10.7 µM on Tek; more than 10.7 µM at AKT; more than 10.7 µM at Zap-70; more than 10.7 µM at EGFR; more than 10.7 µM on Itk; 0.949 to 5.69 µM on Kdr. The IC50 on c-Met and at Lck was more than 10.7 µM throughout.

Take `O=c1[nH]c2ccccc2n1-c1ncnc(Nc2cccc(-c3cnco3)c2)n1` [Compound 418]: the IC50 is 9.42 to 12.1 µM at Tek; 1.08 to 6.46 µM at AKT; more than 12.1 µM on Zap-70; 1.08 to 6.46 µM on EGFR; 9.42 to 12.1 µM at Itk; less than 1.08 µM on Kdr. The results for the IC50 on c-Met and on Lck were more than 12.1 µM and 1.08 to 6.46 µM, respectively.

With `O=c1[nH]c2ccccc2n1-c1ncnc(Nc2ccc(NS(=O)(=O)c3ccc([N+](=O)[O-])cc3)cc2)n1` [Compound 422], the IC50 at Tek was 6.94 to 8.92 µM; at AKT, 0.793 to 4.76 µM; at Zap-70, more than 8.92 µM; at EGFR, 0.793 to 4.76 µM; at Itk, more than 8.92 µM; at Kdr, 0.793 to 4.76 µM. The IC50 on c-Met and on Lck was more than 8.92 µM each time.

As to `COc1cc(Nc2ncnc(N[C@@H](CO)c3ccccc3)n2)cc(OC)c1OC` [Compound 427], the IC50 at Tek, on AKT, at Zap-70, on EGFR, on Itk and on Kdr was more than 11.3 µM in each case. Also, the IC50 on c-Met and at Lck was more than 11.3 µM throughout.

In the case of `CC(C)(C)OC(=O)NCc1ccc(Nc2ncnc(Nc3cc(-c4ccco4)n[nH]3)n2)cc1` [Compound 431], the IC50 on Tek is 5.35 to 7.8 µM; at AKT it was 5.35 to 7.8 µM; on Zap-70, more than 10 µM; on EGFR, 0.892 to 5.35 µM; on Itk, 5.35 to 7.8 µM; on Kdr, 0.892 to 5.35 µM. For the same molecule, the IC50 at c-Met was more than 10 µM; on Lck, 7.8 to 10 µM.

For the molecule `CCOC(=O)Cc1ccc(Nc2ncnc(Nc3cc(-c4ccco4)n[nH]3)n2)cc1` [Compound 432], the IC50 on Tek was more than 11.1 µM; on AKT it was more than 11.1 µM; on Zap-70, more than 11.1 µM; at EGFR it was 0.987 to 5.92 µM; at Itk, 8.63 to 11.1 µM; on Kdr, 0.987 to 5.92 µM. Further, the values for the IC50 on c-Met and on Lck were 0.987 to 5.92 µM and more than 11.1 µM, respectively.

On to `Nc1nc2ccccc2n1-c1ncnc(Nc2ccc(-c3cnco3)cc2)n1` [Compound 438], for which the IC50 lay within 1.08 to 6.48 µM on Tek; 6.48 to 9.45 µM on AKT; 9.45 to 12.1 µM at Zap-70; 1.08 to 6.48 µM at EGFR; 1.08 to 6.48 µM at Itk; 1.08 to 6.48 µM on Kdr. In addition, the IC50 on c-Met and on Lck was 1.08 to 6.48 µM each time.

In the case of `COc1cc(Nc2ncnc(Nc3nccs3)n2)cc(OC)c1OC` [Compound 442], the IC50 at Tek was more than 12.5 µM; on AKT it was more than 12.5 µM; on Zap-70, more than 12.5 µM; on EGFR it was more than 12.5 µM; on Itk it was more than 12.5 µM; at Kdr, 6.66 to 9.71 µM. Moreover, the IC50 on c-Met and on Lck was more than 12.5 µM each time.

On to `COc1cc(Nc2ncnc(Nc3nc(-c4ccccc4)cs3)n2)cc(OC)c1OC` [Compound 444], for which the IC50 at Tek, on AKT, at Zap-70, at EGFR, at Itk and on Kdr was more than 10.3 µM in each case. Also, the IC50 at c-Met and at Lck was more than 10.3 µM throughout.

On to `O=c1[nH]c2ccccc2n1-c1ncnc(Nc2ccc(OC(F)(F)F)cc2)n1` [Compound 462], for which the IC50 was 6.18 to 9.01 µM on Tek; more than 11.6 µM on AKT; 6.18 to 9.01 µM on Zap-70; more than 11.6 µM on EGFR; more than 11.6 µM on Itk; more than 11.6 µM at Kdr. Besides, the IC50 at c-Met and at Lck was 9.01 to 11.6 µM in each case.

For `COc1cc(Nc2ncnc(-n3ccc4ccc(F)cc43)n2)cc(OC)c1OC` [Compound 464], the IC50 on Tek is more than 11.4 µM; at AKT it was more than 11.4 µM; on Zap-70, more than 11.4 µM; at EGFR, more than 11.4 µM; on Itk, more than 11.4 µM; at Kdr, 1.01 to 6.07 µM. For the same molecule, the figures for the IC50 at c-Met and on Lck were more than 11.4 µM and 6.07 to 8.85 µM, respectively.

Take `COc1cc(Nc2ncnc(-c3c(O)n(C)c4ccccc34)n2)cc(OC)c1OC` [Compound 465]: the IC50 at Tek was more than 11 µM; at AKT, more than 11 µM; at Zap-70, more than 11 µM; on EGFR, more than 11 µM; on Itk, more than 11 µM; on Kdr, 0.982 to 5.89 µM. The IC50 on c-Met and at Lck was more than 11 µM in each case.
